Source: patent publication US12421222B2 (AUGUSTINE THERAPEUTICS, priority 2021, dated 2025)
pIC50: −log10 of the molar value.

Tested on: acetylated tubulin (Lys40) in HeLa cells
Experiment: Acetylated α-tubulin measurement in vitro (immunocytochemistry)
Assay type: cell-based
Conditions: Homo sapiens, 6 hours incubation, acetylated tubulin (Lys40) by immunocytochemistry, read-out: IC50 (Tubulin deacetylation)
Description: HeLa cells were cultured in UltraCulture serum-free medium (Lonza) supplemented with 2 mM glutamine (Lonza). Assays were performed at 96-well or 384-well format, differences in assay protocols are detailed in Table 6. Cells per well were plated and incubated overnight at 37° C. overnight in a humidified atmosphere containing 5% CO2. Cell density and seeding volumes are detailed in Table 6. Compounds (dissolved in 100% DMSO) or DMSO (vehicle) were added manually by diluting them in culture medium at 10× final assay concentration and adding 10 μL to cells (96-well protocol). Alternatively, 50 nL compound was added directly to the cell culture using the Echo650 (Labcyte) (384-well protocol). In this assay, the final assay concentration of DMSO is 0.1%-0.4%. Trichostatin A (TSA) was used as a positive control. Cells were incubated with compounds at 37° C. in a humidified atmosphere containing 5% CO2 for 6 hours. Levels of acetylated tubulin (Lys40) were assessed by immunocytochemistry using target-specific antibodies. Cells were fixed with 4% PFA at RT as detailed in Table 6. After 2-3 wash steps with PBS, cells were permeabilized with 0.5% Triton in PBS at RT for 10 minutes followed by 1-2 washes with PBS. To avoid non-specific antibody staining, cells were blocked with 3% BSA in PBS at room temperature for 1 hour. […] Cells were washed 2-3 times with PBS and labelled for 1 h at RT with goat anti-mouse conjugated with Alexa 647 (Thermofisher) and goat anti-rabbit conjugated with Alexa 555 (Thermofisher) secondary antibodies, diluted in 1% BSA to a final concentration of 1:1000. Simultaneously, nuclei were stained with 1:10000-1:15000 Hoechst (Thermofisher). Incubation time and temperature of the primary antibodies are detailed in Table 6. Cells were washed 2-3 times with PBS and they were imaged with the Operetta CLS or Opera Phenix (PerkinElmer). Imaging is further detailed in Table 6. For imaging analysis, the Harmony analysis software (PerkinElmer) was used. Cytoplasmic (defined by total α-tubulin staining) intensities per well were used for α-tubulin (acetylated and total) quantification. Intensities were measured per cell and then averaged per well. Mean intensity levels of acetylated tubulin were normalized to the mean intensity levels of total tubulin. The changes in acetylated tubulin were normalized for each plate using GraphPad Prism software: tubulin acetylation in vehicle (DMSO)-treated cells were set to 0% while tubulin acetylation in TSA-treated cells were set to 100%. EC50 values were calculated using the log(inhibitor) vs. response—Variable slope (four parameters) nonlinear regression in GraphPad Prism software.

Compound | pIC50
CC(NC(=O)CO)c1ccc(C(=O)CSc2nc3cnc(C(F)(F)F)cc3o2)s1 (stereo in doubt) [Example 129, (S)-2-hydroxy-N-(1-(5-(2-((6-(trifluoromethyl)oxazolo[4,5-c]pyridin-2-yl)thio)acetyl)thiophen-2-yl)ethyl)acetamide] | 6.30 to 7.00
O=C(CSc1nc(C(F)(F)F)nc2ncccc12)c1ccc(CN2CCC(O)C2=O)s1 (stereo in doubt) [Example 155, (S)-3-hydroxy-1-((5-(2-((2-(trifluoromethyl)pyrido[2,3-d]pyrimidin-4-yl)thio)acetyl)thiophen-2-yl)methyl)pyrrolidin-2-one] | ≥ 7.00
O=C(CSc1nc(C(F)(F)F)nc2ncccc12)c1ccc(CN2CCC(O)C2=O)s1 (stereo in doubt) [Example 156, (R)-3-hydroxy-1-((5-(2-((2-(trifluoromethyl)pyrido[2,3-d]pyrimidin-4-yl)thio)acetyl)thiophen-2-yl)methyl)pyrrolidin-2-one] | ≥ 7.00
Cc1nc(SCC(=O)c2ccc(CNC(=O)C(C)(C)C)s2)c2cnn(C)c2n1 [Example 5, N-((5-(2-((1,6-dimethyl-1H-pyrazolo[3,4-d]pyrimidin-4-yl)thio)acetyl)thiophen-2-yl)methyl)pivalamide] | < 5.48
Cc1nc(SCC(=O)c2ccc(CNC(=O)C(C)(C)C)s2)c2cccnc2n1 [Example 7, N-((5-(2-((2-methylpyrido[2,3-d]pyrimidin-4-yl)thio)acetyl)thiophen-2-yl)methyl)pivalamide] | 6.30 to 7.00
Cc1nc(SCC(=O)c2ccc(CNC(=O)C(C)(C)C)s2)c2ccc(Cl)cc2n1 [Example 8, N-((5-(2-((7-chloro-2-methylquinazolin-4-yl)thio)acetyl)thiophen-2-yl)methyl)pivalamide] | < 5.48
Cc1nc(SCC(=O)c2ccc(CNC(=O)C(C)(C)C)s2)c2cc(F)ccc2n1 [Example 9, N-((5-(2-((6-fluoro-2-methylquinazolin-4-yl)thio)acetyl)thiophen-2-yl)methyl)pivalamide] | 5.48 to 6.00
Cc1nc(SCC(=O)c2ccc(CNC(=O)C(C)(C)C)s2)c2ccc(F)cc2n1 [Example 10, N-((5-(2-((7-fluoro-2-methylquinazolin-4-yl)thio)acetyl)thiophen-2-yl)methyl)pivalamide] | 5.48 to 6.00
COc1ccc2c(SCC(=O)c3ccc(CNC(=O)C(C)(C)C)s3)nc(C)nc2c1 [Example 12, N-((5-(2-((7-methoxy-2-methylquinazolin-4-yl)thio)acetyl)thiophen-2-yl)methyl)pivalamide] | 5.48 to 6.00
CN(C)c1nc(SCC(=O)c2ccc(CNC(=O)C(C)(C)C)s2)c2ccccc2n1 [Example 16, N-((5-(2-((2-(dimethylamino)quinazolin-4-yl)thio)acetyl)thiophen-2-yl)methyl)pivalamide] | 5.48 to 6.00
COc1ccc2nc(C)nc(SCC(=O)c3ccc(CNC(=O)C(C)(C)C)s3)c2c1 [Example 17, N-((5-(2-((6-methoxy-2-methylquinazolin-4-yl)thio)acetyl)thiophen-2-yl)methyl)pivalamide] | 6.00 to 6.30
Cc1nc(SCC(=O)c2ccc(CNC(=O)C(C)(C)C)s2)c2ncccc2n1 [Example 18, N-((5-(2-((2-methylpyrido[3,2-d]pyrimidin-4-yl)thio)acetyl)thiophen-2-yl)methyl)pivalamide] | 5.48 to 6.00
CC(C)(C)C(=O)NCc1ccc(C(=O)CSc2nc(C(F)F)nc3ccccc23)s1 [Example 19, N-((5-(2-((2-(difluoromethyl)quinazolin-4-yl)thio)acetyl)thiophen-2-yl)methyl)pivalamide] | 5.48 to 6.00
Cn1ncc2c(SCC(=O)c3ccc(CNC(=O)C(C)(C)C)s3)nc(C(F)(F)F)nc21 [Example 20, N-((5-(2-((1-methyl-6-(trifluoromethyl)-1H-pyrazolo[3,4-d]pyrimidin-4-yl)thio)acetyl)thiophen-2-yl)methyl)pivalamide] | 6.30 to 7.00
Cn1ncc2c(SCC(=O)c3ccc(CNC(=O)C(C)(C)C)s3)nc(C(F)F)nc21 [Example 21, N-((5-(2-((6-(difluoromethyl)-1-methyl-1H-pyrazolo[3,4-d]pyrimidin-4-yl)thio)acetyl)thiophen-2-yl)methyl)pivalamide] | 5.48 to 6.00
Cn1cc2c(SCC(=O)c3ccc(CNC(=O)C(C)(C)C)s3)nc(C(F)(F)F)nc2n1 [Example 22, N-((5-(2-((2-methyl-6-(trifluoromethyl)-2H-pyrazolo[3,4-d]pyrimidin-4-yl)thio)acetyl)thiophen-2-yl)methyl)pivalamide] | 6.30 to 7.00
Cc1ccc2oc(SCC(=O)c3ccc(CNC(=O)C(C)(C)C)s3)nc2n1 [Example 23, N-((5-(2-((5-methyloxazolo[4,5-b]pyridine-2-yl)thio)acetyl)thiophen-2-yl)methyl)pivalamide] | 6.00 to 6.30
Cn1ncc2c(SCC(=O)c3ccc(CN4CCCC4=O)s3)ncnc21 [Example 25, 1-((5-(2-((1-methyl-1H-pyrazolo[3,4-d]pyrimidin-4-yl)thio)acetyl)thiophen-2-yl)methyl)pyrrolidin-2-one] | < 5.48
Cn1ncc2c(SCC(=O)c3ncc(CNC(=O)C(C)(C)C)s3)ncnc21 [Example 27, N-((2-(2-((1-methyl-1H-pyrazolo[3,4-d]pyrimidin-4-yl)thio)acetyl)thiazol-5-yl)methyl)pivalamide] | 5.48 to 6.00
Cn1ncc2c(SCC(=O)c3cc(F)c(CNC(=O)C(C)(C)C)s3)ncnc21 [Example 28, N-((3-fluoro-5-(2-((1-methyl-1H-pyrazolo[3,4-d]pyrimidin-4-yl)thio)acetyl)thiophen-2-yl)methyl)pivalamide] | 5.48 to 6.00
Cn1ncc2c(SCC(=O)c3ccc(CNC(=O)c4ccccc4)s3)ncnc21 [Example 30, N-((5-(2-((1-methyl-1H-pyrazolo[3,4-d]pyrimidin-4-yl)thio)acetyl)thiophen-2-yl)methyl)benzamide] | 5.48 to 6.00
Cn1ncc2c(SCC(=O)c3ccc(CNC(=O)C4CC4)s3)ncnc21 [Example 31, N-((5-(2-((1-methyl-1H-pyrazolo[3,4-d]pyrimidin-4-yl)thio)acetyl)thiophen-2-yl)methyl)cyclopropanecarboxamide] | 5.48 to 6.00
CN(Cc1ccc(C(=O)CSc2ncnc3c2cnn3C)s1)C(=O)C1CC1 [Example 34, N-methyl-N-((5-(2-((1-methyl-1H-pyrazolo[3,4-d]pyrimidin-4-yl)thio)acetyl)thiophen-2-yl)methyl)cyclopropanecarboxamide] | 5.48 to 6.00
O=C(CSc1nc(C(F)(F)F)nc2ccccc12)c1ccc(CCNC(=O)C2CC2)s1 [Example 36, N-(2-(5-(2-((2-(trifluoromethyl)quinazolin-4-yl)thio)acetyl)thiophen-2-yl)ethyl)cyclopropanecarboxamide] | < 5.48
CC(C)(C)C(=O)NCc1ccc(C(=O)CSc2nc(C(F)(F)F)nc3ccccc23)s1 [Example 38, N-((5-(2-((2-(trifluoromethyl)quinazolin-4-yl)thio)acetyl)thiophen-2-yl)methyl)pivalamide] | 6.00 to 6.30
COc1ccc2nc(C)nc(SCC(=O)c3ccc(CNC(=O)C4CC4(F)F)s3)c2c1 (stereo not drawn) [Example 39, 2,2-difluoro-N-((5-(2-((6-methoxy-2-methylquinazolin-4-yl)thio)acetyl)thiophen-2-yl)methyl)cyclopropane-1-carboxamide] | 6.00 to 6.30
COc1ccc2nc(C)nc(SCC(=O)c3ccc(CNC(=O)C(F)(F)C(F)(F)F)s3)c2c1 [Example 40, 2,2,3,3,3-pentafluoro-N-((5-(2-((6-methoxy-2-methylquinazolin-4-yl)thio)acetyl)thiophen-2-yl)methyl)propanamide] | 6.00 to 6.30
Cn1cc2c(SCC(=O)c3ccc(CNC(=O)C4CC4)s3)nc(C(F)(F)F)nc2n1 [Example 41, N-((5-(2-((2-methyl-6-(trifluoromethyl)-2H-pyrazolo[3,4-d]pyrimidin-4-yl)thio)acetyl)thiophen-2-yl)methyl)cyclopropanecarboxamide] | 5.48 to 6.00
O=C(CSc1nc(C(F)(F)F)nc2nn(C3CC3)cc12)c1ccc(CNC(=O)C2CC2(F)F)s1 (stereo not drawn) [Example 43, N-((5-(2-((2-cyclopropyl-6-(trifluoromethyl)-2H-pyrazolo[3,4-d]pyrimidin-4-yl)thio)acetyl)thiophen-2-yl)methyl)-2,2-difluorocyclopropane-1-carboxamide] | 6.30 to 7.00
O=C(CSc1nc(C(F)(F)F)nc2nn(C3CC3)cc12)c1ccc(CNC(=O)C(F)(F)C(F)(F)F)s1 [Example 44, N-((5-(2-((2-cyclopropyl-6-(trifluoromethyl)-2H-pyrazolo[3,4-d]pyrimidin-4-yl)thio)acetyl)thiophen-2-yl)methyl)-2,2,3,3,3-pentafluoropropanamide] | 6.30 to 7.00
